Common to all, as to type: in vivo
Assay [1] concerns sympathetic nerve. Briefly: RR interval by Holter ECG after oral GABA in Beagle dogs. The conditions noted are these: 10 month old Beagle dogs. How it is done:
Three 10 month old Beagle dogs were confined in darkness from 19:00 (7pm) until 7:00 (7am). An electrocardiogramr was obtained under free movement using a Holter ECG recorder (wireless installation-type ECG recorder). An electrocardiogram was obtained every 30 minutes for 1 minute. A capsule containing 300 mg/kg body weight of GABA was orally administered to each dog just before the dark period. As a control, an empty capsule was administered.
An RR interval (msec, inverse number of a heart rate) relative to the time that lapsed after administration was measured.

In assay [2] the test system is senior dogs. Kind of assay: Dog food mixed with GABA fed to senior dogs, observation of age-related conditions. The following applies: 2 weeks. Here is the method:
Dog food was mixed with GABA (30 mg/kg body weight). Mongrel dog A (17 years old) was fed this mixture once a day in the evening for 2 weeks. […] Dog food was mixed with GABA (30 mg/kg body weight). Mongrel dog B (14 years old) was fed this mixture once a day for 2 weeks. […] Dog food was mixed with GABA (30 mg/kg body weight). Toy poodle A (15 years old) was fed this mixture once a day for 2 weeks. […] Dog food was mixed with GABA (30 mg/kg body weight). Toy poodle B (12 years old) was fed this mixture once a day for 2 weeks. […] Dog food was mixed with GABA (30 mg/kg body weight). Pomeranian A (14 years old) was fed this mixture once a day for 2 weeks. […] Dog food was mixed with GABA (30 mg/kg body weight). Shiba Ken (Japanese breed) A (16 years old) was fed with this mixture once a day for 2 weeks.

The test system of assay [3] is senior dogs. Briefly: Intravenous SKF 97541 in a senior dog, turning motion. The following applies: Shiba Ken B (15 years old), single intravenous dose of from 0.01 to 0.1 mg/kg body weight. Here is the method:
SKF 97541 was intravenously administered once to Shiba Ken B (15 years old) at a dose of from 0.01 to 0.1 mg/kg body weight.

Setting [4] is: Mongrel dog B (14 years old), 30 mg/kg body weight in dog food once a day.
Setting [5] is: Pomeranian A (14 years old), 30 mg/kg body weight in dog food once a day.
Setting [6] is: Shiba Ken A (16 years old), 30 mg/kg body weight in dog food once a day.
[7] abbreviates: Toy poodle A (15 years old), 30 mg/kg body weight in dog food once a day.
Where [8] appears, read: Toy poodle B (12 years old), 30 mg/kg body weight in dog food once a day.

The results in this text go back to US20050106220A1, “Agent for improving mobility and general health of senior companion animals” (priority 2003, published 2005).

Take `NCCCC(=O)O` [GABA, γ-aminobutyric acid]: the “stimulus of the sympathetic nerve” value in assay [1] (GABA 300 mg/kg body weight oral capsule) is reported as “stimulus of the sympathetic nerve was observed”. Also, the “average RR interval (inverse number of a heart rate)” value in assay [1] (GABA 300 mg/kg body weight oral capsule before dark period, approximately 2 to 9 hours after administration, vs empty capsule) was “shortened”. For the same compound, the “forced and labored breathing” value in assay [2] (Mongrel dog A (17 years old), 30 mg/kg body weight in dog food once a day in the evening) is reported as “disappeared”. In assay [2] (setting [4]), the drinking behaviour entry is on record as “drank water on its own”; the leg trembling result is “disappeared”; the “mobility and general health” value is “improvement in mobility and general health was observed”. For the same compound, in assay [2] (setting [5]), the “continuous sleeping all day long” value was “decreased”; the “desire to go for a walk” value is on record as “clearly showed signs that he wanted to go for a walk”; the “general health and activity level” value was “improvement in general health and activity level was observed”. Moreover, in assay [2] (setting [6]), the “ability to move around” value is “able to move around easier and clearly with less pain”; the mobility entry is “improvement in mobility was observed”. For the same compound, in assay [2] (setting [7]), the behaviour towards owner result was “sought out his owner and wanted to stay by him”; the difficult breathing result is reported as “decreased”; the “sense of hearing and sense of smell, mobility and general health” value is recorded as “improvement”. In assay [2] (setting [8]), the mobility entry is “improvement in mobility was observed” and the “walking (tottering steps before administration)” value is “walked firmly with steady steps”.

As for `CP(=O)(O)CCCN` [SKF 97541, 3-aminopropyl(methyl)phosphinic acid], the turning motion result in assay [3] is on record as “eliminated at any dose”.
